Data reported in patent US6149937A, “Liposome encapsulated amphiphilic drug compositions” (priority 1996, dated 2000).
Where two headings read alike, the source gives them in different places. *1 amine or outer side, *2 acyl side, *3 side chain or, on linkers, in order; H or OH if unused. Where a SMILES comes first, the peptide text is derived from it. Bridges are numbered along the chain shown (N, C = ends). Roman numbers before positions name the chains, in order. [ ]: non-standard residue; d: D form. Actinocin(9to1) = Cc1c2oc3c(C)ccc(C(=O)[*:1])c3nc-2c(C(=O)[*:2])c(N)c1=O; NMeV = CN[CH](C(=O)O)C(C)C; Sar = CNCC(=O)O

What was measured:
[1] = Crystals in liposomal BP^0 formulations; format: physicochemical
Description: These films were hydrated by 1 ml buffer at pH 8.1 and suspended as MLVs with bupivacaine crystals inside and outside the phospholipid […] by freeze-etching electron microscopy. […] This film was suspended as MLVs in 1 ml buffer pH 8.1. […] No crystals were detected from the ratio 17 and above (Table VII).

[2] = Release of bupivacaine from the liposomal BP^0 formulation at pH 7.4; format: physicochemical
[3] = Entrapment of BP^+ into MLVs; format: physicochemical; conditions: for encapsulation efficiency: EPC/BP^+ 6, pH 6.5
Description: The bupivacaine concentration was measured by UV spectrophotometry at 271.6 nm. After extraction of BP^+ in chloroform with EPC, 27.5 mg of cholesterol were added thereto. After evaporation of the organic solvent under an inert atmosphere and drying of the lipid film, hydration was carried out at pH 6.5. The encapsulation efficiency was measured by UV spectrophotometry at 271.6 nm.

[4] = Rate of release of BP^+ from MLVs at pH 7.4; format: physicochemical
Description: A further preparation of liposomal BP^+ pH 6.5 prepared as described above was inserted into a dialysis bag (5 ml containing 353.25 mg EPC and 25 mg BP^+). The bag was immersed in 145 ml PBS pH 7.4 with a renewal rate of 23 ml/hour. Samples of the pH 7.4 medium were harvested at different times and the concentration of bupivacaine was measured by UV spectrophotometry.

[5] = not told
[6] = cited from earlier work; for animal or human results of liposome association: lipid-layer encapsulated
[7] = cited from earlier work
[8] = cited from earlier work; remark: listed apart in the source
[9] = EPC/oxine 4.8, pH 7.4
[10] = 10 ml PBS pH 7.4
bacteria = conditions: References 30-33; listed as oxine; cited from earlier work
[11] = Entrapment of tin(II) dioxinate into MLVs; format: physicochemical
Description: Egg yolk phosphatidylcholine (14.4 mg, 18.3 μmol) and cholesterol (5.6 mg, 13.7 μmol) were dissolved in chloroform with 0.1, 0.2, 0.3, 0.4, 0.5 mg (1.2 μmol) and 0.6 mg tin(II) dioxinate. After evaporation of the solvent, hydration occurred with NaCl 150 mM 1 ml. The MLVs thus prepared were washed 5 times in order to discard free tin(II) dioxinate.
The number of tin(II) dioxinate molecules inserted into liposomes increased with the number of SnOx2 molecules present in the preliposomal lipid film. Liposomal saturation occurred for a number of moles averaging 1.23 μmoles SnOx2 inserted into 18.3 μmoles EPC (EPC/SnOx2 mole ratio of 15) with an encapsulation efficiency of 30% for MLVs.

[12] = Release of tin(II) dioxinate from MLVs at pH 7.4; format: physicochemical
[13] = Cell membrane permeation predicted by TAMMO combined with liposomal entrapment and release assays; conditions: concluded from TAMMO and liposome assays
[14] = pH 7.8
[15] = not given; remark: listed apart in the source
[16] = not given; remark: listed apart in the source
[17] = cited from earlier work; remark: listed apart in the source
[18] = cited from earlier work; remark: listed apart in the source
[19] = MP^0 release from MLVs (dialysis bag, PBS pH 7.4); format: physicochemical
[20] = Entrapment of MP^+ into MLVs; format: physicochemical; conditions: EPC/morphine 98, pH 4.5, n=5, referred to 1 mg initially dissolved
[21] = pH 7.4, 37° C.
[22] = formulation with crystals, pH 7.4

## CCCCN1CCCCC1C(=O)Nc1c(C)cccc1C (centres unmarked) [BP^0]
[1]; EPC/BP ratio 17 and above
  Crystals: No crystals
[1]; EPC/BP ratio up to 16
  Crystals: presence of bupivacaine crystals
[1]; EPC/BP^0 ratio 13 or above
  Crystals: without crystals
[1]; EPC/BP^0 ratio 17
  Crystals: 0
[1]; EPC/BP^0 ratio 20
  Crystals: 0
[1]; EPC/BP^0 ratio 22
  Crystals: 0
[1]; EPC/BP^0 ratio 25
  Crystals: 0
[2]; Table III, PL/X 5
  Release: 24 to 48 h
[2]; crystal-free
  release compared with crystal-containing formulation: slower
[2]; crystal-free, 230.56 mg EPC, 5 mg BP^0, pH 7.4
  peak concentration: 5 to 8 µg/mL
[2]; crystal-free, pH 7.4
  time to complete clearance: 3 days
  time to peak: 6 h
[2]; formulation with crystals, 14.4 mg EPC, 5 mg BP^0, pH 7.4, 37° C.
  maximal concentration: 7 to 8 µg/mL
[2]; [22]
  time to maximal concentration: 6 to 12 h
  time to release of the whole amount: 2 days
[3]; Table III, PL/X 5
  AE (encapsulation efficiency): 75%
[3]; after 2 hours
  encapsulation efficiency: 60±1%
[3]; after 24 hours
  encapsulation efficiency: 74±0.5%
[3]; from 5 mg BP^+, 70.65 mg EPC
  BP^+ inserted into MLVs: 3.7 mg
[4]; 1 ml formulation, pH 7.4
  duration of release: 24 to 48 h
  time to maximal concentration: 6 to 12 h
[4]; 5 ml formulation in dialysis bag, pH 7.4
  duration of release: 72 h
[4]; 6 hour, 5 ml in dialysis bag, pH 7.4
  rapid transfer of unencapsulated bupivacaine: 25%
[4]; Table III, PL/X 5
  Release: 72 h
[5]
  ability to cross cell membranes: able to cross cell membranes
[6]; BP^+ in liposomal aqueous phase, Reference 13
  sensory block: prolongation of the sensory block
[6]; BP^+ in liposomal aqueous phase, Reference 29
  motor block: outlasted the analgesic action

## Cc1cccc(C)c1NC(=O)C1CCCCN1C (centres unmarked) [Mepivacaine, mepivacaine]
[7]; octanol/water
  Log Poct: -0.1
[8]; Table II
  pKs: 7.76

## Cc1c2oc3c(C)ccc(C(=O)NC4C(=O)NC(C(C)C)C(=O)N5CCCC5C(=O)N(C)CC(=O)N(C)C(C(C)C)C(=O)OC4C)c3nc-2c(C(=O)NC2C(=O)NC(C(C)C)C(=O)N3CCCC3C(=O)N(C)CC(=O)N(C)C(C(C)C)C(=O)OC2C)c(N)c1=O (centres unmarked) [actinomycin D] (I: TVP[Sar][NMeV] / II: TVP[Sar][NMeV]; ester I:1-I:C, II:1-II:C; linker I:N-II:N via Actinocin(9to1); configuration not given here)
[6]
  animal or human results of liposome association: promising animal or effective human results

## Oc1cccc2cccnc12 [Oxine, 8-hydroxyquinoline]
[9]
  oxine entrapped in MLVs: 50%
[9]; from 0.7 mg
  oxine entrapped in MLVs: 0.35 mg
[10]
  time of release of a bulk of the liposomal compound: 20 min
[7]; not logarithmic
  partition coefficient octanol/water: 67
bacteria
  bactericidal activity (words): acts as a bactericidal agent by crossing the bacterial cell membrane

## CCN(CC)CCOC(=O)c1ccc(N)cc1Cl [Chlorprocaine, chlorprocaine]
[7]; Table II
  Log Poct: -0.8

## CCCCNc1ccc(C(=O)OCCN(C)C)cc1 [Tetracaine, tetracaine]
[7]; octanol/water
  Log Poct: 0.6

## tin(II) dioxinate
[11]; 18.3 μmoles EPC
  SnOx2 inserted at liposomal saturation: ~1.23 µmol
[11]; MLVs
  EPC/SnOx2 mole ratio at saturation: 15
[11]; MLVs, EPC/SnOx2 15
  encapsulation efficiency: 30%
[11]; Table III, PL/X 6
  AE (encapsulation efficiency): 30%
[12]; Table III, PL/X 6
  Release: > 72 h
[12]; pH 7.4, for at least one week
  Release: no release
chloroform
  limit of solubility in chloroform: 400 µM
Chloroform with epc
  limit of solubility in chloroform: 4100 µM
[13]
  ability to cross cell membranes: unable to cross the cell membrane

## CCCN(CC)C(CC)C(=O)Nc1c(C)cccc1C (centres unmarked) [Etidocaine, etidocaine]
[7]; octanol/water
  Log Poct: 2.1

## Clc1cccc(Cl)c1NC1=NCCN1 [CL^0]
[14]
  proportion of species: 28.5%
[14]; listed as CL^+
  proportion of species: 71.5%
[15]; Table III, PL/X 5
  AE (encapsulation efficiency): 14.5%
[16]; Table III, PL/X 5
  Release: 0.5 h

## Clc1cccc(Cl)c1N=C1NCCN1 [Clonidine, clonidine]
[15]; 14.4 mg EPC, 0.5 mg CL^0, pH 7.8, n=6
  encapsulation efficiency: 14.5%±0.4
[16]; pH 7.4, after 1 hour
  leakage from vesicles after 1 hour: Almost all
[7]; octanol/water
  Log Poct: 1.59
[8]
  pK / pKa: 8.2
[17]
  solubility in organic solvents: soluble in octanol when uncharged
[17]; water or acidic solution
  solubility in aqueous medium: highly soluble in acidic solution as a cation
[18]; human, in vivo
  duration of hypotensive action: 1 days

## CCCNC(C)C(=O)Nc1ccccc1C (centres unmarked) [Prilocaine, prilocaine]
[7]; Table II
  Log Poct: -0.05

## CCCCN1CCCCC1C(=O)Nc1c(C)cccc1C (centres unmarked) [Bupivacaine, bupivacaine]
[6]
  animal or human results of liposome association: promising animal or effective human results
[7]; Table II
  Log Poct: 1.4
[7]; Table III
  Log Poct: 3.6
[7]; clonidine: octanol/buffer pH 7.4
  log of the partition coefficient between water and octanol: 1.8
[18]; human, in vivo
  plasma level at which systemic toxicity becomes apparent: ~1600 ng/mL
  therapeutic concentration: 1 µg/mL
[18]; peripheral nerve blocks
  duration of analgesic action: up to 12 hours

## CCN(CC)CCOC(=O)c1ccc(N)cc1 [Procaine, procaine]
[7]; octanol/water
  Log Poct: -1.7

## CN1CC[C@]23c4c5ccc(O)c4O[C@H]2[C@@H](O)C=C[C@H]3[C@H]1C5 [MP^0]
[19]; EPC/MP^0 10
  crystals in the dialysis bag at the end of release: No crystals
[19]; EPC/MP^0 10, 26 and 52
  Release: sustained and prolonged
[19]; EPC/MP^0 10, pH 7.4
  duration of release: 48 h
[19]; EPC/MP^0 26, pH 7.4
  duration of release: 30 h
[19]; EPC/MP^0 52, pH 7.4
  duration of release: 24 h
[19]; Table III, PL/X 10
  Release: 48 h
[19]; Table III, PL/X 26
  Release: 30 h
[19]; Table III, PL/X 52
  Release: 24 h
[20]
  encapsulation: 31.2±2.1%
[21]
  duration of slow decrease of concentration: 3 days
  time to maximal concentration: 1 h

## CN1CC[C@]23c4c5ccc(O)c4O[C@H]2[C@@H](O)C=C[C@H]3[C@H]1C5 [Morphine, morphine]
[18]; intramuscular, epidural or intrathecal
  duration of action: ≥ 12 h

## CCOC(=O)C1(c2ccccc2)CCN(C)CC1 [Meperidine, meperidine]
[7]; octanol/water
  Log Poct: 1.3
